Legend:
Test in all cases: relative viability (nuclei count vs DMSO), 5 days (fraction); higher = more cells survive
IU1-47 + Dasatinib = compound: CC1=CC(=C(N1C2=CC=C(C=C2)Cl)C)C(=O)CN3CCCCC3 [IU1-47] + Cc1nc(Nc2ncc(C(=O)Nc3c(C)cccc3Cl)s2)cc(N2CCN(CCO)CC2)n1 [Dasatinib] (partner 0.075 µM)
Procedure, shortened: (§1)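 Lung cancer cell lines were pin-tool dosed in 1536-well plates on the day after seeding, with either a lone drug or a fixed anchor-drug dose plus five library-drug doses (not always all listed) in √10 steps. Nuclei were counted on 4× images after 5 days. Relative viability is the ratio of treated-well to vehicle-well nuclei counts, with each value a median of duplicate plates.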

IU1-47 + Lapatinib = compound: CC1=CC(=C(N1C2=CC=C(C=C2)Cl)C)C(=O)CN3CCCCC3 [IU1-47] + CS(=O)(=O)CCNCc1ccc(-c2ccc3ncnc(Nc4ccc(OCc5cccc(F)c5)c(Cl)c4)c3c2)o1 [Lapatinib] (partner 2 µM)
Procedure, shortened: as §1

FG-4592 + Olaparib = compound: Cc1nc(C(=O)NCC(=O)O)c(O)c2ccc(Oc3ccccc3)cc12 [FG-4592] + O=C(c1cc(Cc2n[nH]c(=O)c3ccccc23)ccc1F)N1CCN(C(=O)C2CC2)CC1 [Olaparib] (partner 8 µM)
Procedure, shortened: as §1

FG-4592 + Crizotinib = compound: Cc1nc(C(=O)NCC(=O)O)c(O)c2ccc(Oc3ccccc3)cc12 [FG-4592] + C[C@@H](Oc1cc(-c2cnn(C3CCNCC3)c2)cnc1N)c1c(Cl)ccc(F)c1Cl [Crizotinib] (partner 1 µM)
Procedure, shortened: as §1

| Cell Line | relative viability (IU1-47 + Dasatinib; first compound 0.08 µM) | relative viability (IU1-47 + Dasatinib; first compound 0.253 µM) | relative viability (IU1-47 + Dasatinib; first compound 0.8 µM) | relative viability (IU1-47 + Dasatinib; first compound 2.53 µM) | relative viability (IU1-47 + Dasatinib; first compound 8 µM) | relative viability (IU1-47 + Lapatinib; first compound 0.08 µM) | relative viability (IU1-47 + Lapatinib; first compound 0.253 µM) | relative viability (IU1-47 + Lapatinib; first compound 0.8 µM) | relative viability (IU1-47 + Lapatinib; first compound 2.53 µM) | relative viability (IU1-47 + Lapatinib; first compound 8 µM) | relative viability (FG-4592 + Olaparib; first compound 0.08 µM) | relative viability (FG-4592 + Olaparib; first compound 0.8 µM) | relative viability (FG-4592 + Olaparib; first compound 2.53 µM) | relative viability (FG-4592 + Olaparib; first compound 8 µM) | relative viability (FG-4592 + Crizotinib; first compound 0.08 µM) | relative viability (FG-4592 + Crizotinib; first compound 0.253 µM) | relative viability (FG-4592 + Crizotinib; first compound 0.8 µM) | relative viability (FG-4592 + Crizotinib; first compound 2.53 µM) | relative viability (FG-4592 + Crizotinib; first compound 8 µM) | relative viability (FG-4592 + Olaparib; first compound 0.253 µM) |
| --- | --- | --- | --- | --- | --- | --- | --- | --- | --- | --- | --- | --- | --- | --- | --- | --- | --- | --- | --- | --- |
| HCC-78 | 0.378 | 0.389 | 0.324 | 0.373 | 0.336 | 0.721 | 0.347 | 1 | 0.717 | 0.712 | 0.717 | 0.788 | 0.759 | 0.733 | 0.312 | 0.332 | 0.269 | 0.31 | 0.337 | – |
| HCC-366 | 0.679 | 0.694 | 0.621 | 0.689 | 0.584 | 1.04 | 0.938 | 1.26 | – | 1.15 | 0.331 | 0.352 | 0.435 | 0.296 | 0.469 | 0.471 | 0.565 | 0.628 | 0.325 | 0.353 |
| HCC-827 | 0.345 | 0.366 | 0.301 | 0.288 | 0.387 | 0.198 | 0.215 | 0.197 | 0.19 | 0.207 | 0.591 | 0.625 | 0.705 | 0.729 | 0.92 | 0.892 | 0.923 | 1.02 | 0.869 | 0.624 |
| HOP-62 | 0.673 | 0.652 | 0.709 | 0.531 | 0.564 | 1.14 | 1.01 | 1.12 | 0.844 | 0.954 | 0.373 | 0.496 | 0.383 | 0.338 | 0.981 | 0.89 | 1.01 | 0.922 | 0.654 | 0.561 |
| IA-LM | – | – | – | – | – | – | 1.08 | 0.832 | 0.997 | 0.664 | 0.712 | 0.663 | 0.81 | 0.727 | 0.766 | 0.824 | 0.805 | 0.644 | 0.76 | 0.623 |
| LC-2-ad | 0.466 | 0.524 | 0.523 | 0.491 | 0.42 | 1.09 | 0.928 | 0.836 | 1.25 | 1.04 | 0.683 | 0.725 | 0.755 | 0.782 | 0.433 | 0.412 | 0.48 | 0.508 | 0.486 | 0.694 |
| LCLC-97TM1 | 0.98 | 0.971 | 1.03 | 0.841 | 0.776 | 1.34 | 0.635 | 0.92 | – | 0.78 | 0.444 | – | 0.329 | 0.421 | 0.347 | 0.342 | 0.372 | – | 0.435 | 0.417 |
| LCLC-103H | 0.49 | 0.471 | 0.491 | 0.465 | 0.345 | – | – | – | – | – | 0.746 | 0.695 | 0.708 | 0.751 | 0.884 | 0.977 | 1.01 | 0.994 | 1.05 | 0.751 |
| LK-2 | 0.221 | 0.185 | 0.264 | 0.24 | 0.28 | 1.15 | 1.26 | 0.963 | 0.703 | 0.517 | 0.556 | 0.613 | 0.701 | 0.662 | – | 0.23 | – | 0.279 | 0.216 | 0.787 |
| LOU-NH91 | 0.597 | 0.581 | 0.605 | 0.608 | 0.534 | 0.784 | 0.877 | 0.812 | 0.762 | 0.702 | 0.93 | 0.902 | 0.959 | 0.953 | 0.738 | 0.677 | 0.716 | 0.727 | 0.715 | 0.85 |
| LU99A | 0.756 | 0.499 | 0.457 | 0.659 | 0.462 | 0.933 | 1.07 | 1.16 | 1.02 | 1 | 0.268 | – | 0.276 | 0.29 | 0.534 | 0.523 | 0.543 | 0.558 | 0.58 | 0.242 |
| NCI-H441 | 0.717 | 0.655 | 0.679 | 0.471 | 0.576 | – | – | – | – | – | 0.431 | 0.49 | 0.502 | 0.493 | 0.582 | 0.646 | 0.916 | 0.72 | 0.632 | 0.462 |
| NCI-H522 | 0.807 | 0.872 | 0.748 | 0.759 | 0.907 | – | – | – | – | – | 0.766 | – | 0.588 | 0.678 | – | – | – | – | – | 0.644 |
| NCI-H1299 | – | – | – | – | – | 0.962 | 0.982 | 0.975 | 1.02 | 0.934 | 0.935 | 1.01 | 1.01 | 0.971 | 0.953 | 0.903 | 0.976 | 0.93 | 0.989 | 0.906 |
| NCI-H1395 | 0.422 | 0.451 | 0.457 | 0.374 | 0.374 | 0.968 | 0.96 | 1.08 | – | 0.892 | 0.526 | 0.471 | 0.48 | 0.385 | – | – | – | – | – | 0.488 |
| NCI-H1563 | 0.532 | 0.481 | 0.429 | 0.462 | 0.447 | 0.935 | 0.914 | 1.25 | 0.793 | 0.73 | – | – | – | – | 0.893 | 0.888 | 0.91 | 0.889 | 0.804 | – |
| NCI-H1648 | – | – | – | – | – | – | – | – | – | – | 0.712 | – | 0.483 | 1.43 | – | – | – | – | – | 0.647 |
| NCI-H1703 | – | – | – | – | – | 1.21 | 1.2 | 1.03 | 1.39 | 0.96 | 0.428 | 0.336 | 0.341 | 0.423 | 0.591 | 0.572 | 0.702 | 0.44 | 0.733 | 0.337 |
| NCI-H1793 | 0.458 | 0.298 | 0.403 | – | 0.409 | 0.525 | 0.594 | 0.648 | – | 0.566 | – | – | 0.827 | 0.71 | – | – | – | – | – | 0.727 |
| NCI-H2342 | 0.328 | 0.344 | 0.32 | 0.301 | 0.307 | – | – | – | – | – | 0.433 | 0.452 | 0.436 | 0.422 | – | – | – | – | – | 0.436 |
| SW 900 | 0.664 | 0.529 | 0.7 | 0.556 | 0.742 | – | – | – | – | – | – | – | 0.812 | 0.794 | – | – | – | – | – | 0.946 |

Reference: the supplement of paper PMC10307832
